This note sets out measurements from US20080262037A1, “Piperidine Derivatives for the Treatment of Chemokine Mediated Disease” (ASTRAZENECA AB, priority 2004, published 2008).

Structures can show the parent of a compound that is named as a salt.

In this assay the target is T1, human H1 receptor (Homo sapiens, UniProt P35367).
T1 construct: purchased Euroscreen SA, Brussels, Belgium ES-390-M; host or cells: CHO-K1 cells (membranes)
T1 sequence (P35367 whole entry): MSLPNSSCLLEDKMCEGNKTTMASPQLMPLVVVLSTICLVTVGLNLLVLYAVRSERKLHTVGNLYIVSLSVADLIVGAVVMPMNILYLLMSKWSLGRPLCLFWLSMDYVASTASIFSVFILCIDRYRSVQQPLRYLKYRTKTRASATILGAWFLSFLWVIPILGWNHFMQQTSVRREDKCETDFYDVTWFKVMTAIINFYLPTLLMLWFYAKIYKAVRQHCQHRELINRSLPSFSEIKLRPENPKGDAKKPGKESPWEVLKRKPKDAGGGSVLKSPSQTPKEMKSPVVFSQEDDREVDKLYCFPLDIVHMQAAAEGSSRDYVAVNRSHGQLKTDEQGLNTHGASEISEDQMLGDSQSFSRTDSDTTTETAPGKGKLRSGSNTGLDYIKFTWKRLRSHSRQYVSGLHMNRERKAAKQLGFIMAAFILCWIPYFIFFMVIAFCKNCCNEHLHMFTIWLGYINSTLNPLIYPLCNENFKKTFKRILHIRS
Description: Histamine H1 receptor binding, competition displacement of [3H]-pyrilamine. The settings on record: displacement of 1 nM [3H]-pyrilamine; membranes from recombinant CHO-K1 cells expressing the human H1 receptor; 1 hour at room temperature; read-out: H1 pKi/[1328_S] (converted). In general terms: Loss of bound radioactivity is the signal in a displacement assay; it reports binding, not function.
For the compound `COc1ccc(CC(=O)O)cc1N1CCC(CN2CCC(Oc3ccc(Cl)c(Cl)c3)CC2)CC1` [Example 23, [3-(4-{[4-(3,4-Dichlorophenoxy)piperidin-1-yl]methyl}piperidin-1-yl)-4-methoxyphenyl]acetic acid], the Ki is 12.6 nM.

As to `CC(C)(Oc1ccccc1N1CCC(CN2CCC(Oc3ccc(Cl)c(Cl)c3)CC2)CC1)C(=O)O` [Example 27, 2-[2-(4-{[4-(3,4-Dichlorophenoxy)piperidin-1-yl]methyl}piperidin-1-yl)phenoxy]-2-methylpropanoic acid], the Ki was 31.6 nM.

In the case of `C[C@@H](Oc1ccccc1N1CCC(CN2CCC(Oc3ccc(Cl)c(Cl)c3)CC2)CC1)C(=O)O` [Example 28, (2R)-2-[2-(4-{[4-(3,4-Dichlorophenoxy)piperidin-1-yl]methyl}piperidin-1-yl)phenoxy]propanoic acid], the Ki was 10 nM.

On to `C[C@H](Oc1ccccc1N1CCC(CN2CCC(Oc3ccc(Cl)c(Cl)c3)CC2)CC1)C(=O)O` [Example 29, (2S)-2-[2-(4-{[4-(3,4-Dichlorophenoxy)piperidin-1-yl]methyl}piperidin-1-yl)phenoxy]propanoic acid], for which the Ki was 12.6 nM.

As for `C[C@@H](Oc1cccc(N2CCC(CN3CCC(Oc4ccc(Cl)c(Cl)c4)CC3)CC2)c1)C(=O)O` [Example 30, (2R)-2-[3-(4-{[4-(3,4-Dichlorophenoxy)piperidin-1-yl]methyl}piperidin-1-yl)phenoxy]propanoic acid], the Ki was 12.6 nM.

Consider `Cc1c(OC2CCN(CC3CCN(c4ccc(CC(=O)O)cc4)CC3)CC2)ccc(Cl)c1Cl` [Example 33, [4-(4-{[4-(3,4-Dichloro-2-methylphenoxy)piperidin-1-yl]methyl}piperidin-1-yl)phenyl]acetic acid], for which the Ki is 12.6 nM.

`Cc1c(OC2CCN(CC3CCN(c4cccc(O[C@H](C)C(=O)O)c4)CC3)CC2)ccc(C#N)c1Cl` [Example 37, (2R)-2-[3-(4-{[4-(3-Chloro-4-cyano-2-methylphenoxy)piperidin-1-yl]methyl}piperidin-1-yl)phenoxy]propanoic acid]: the Ki is 398 nM.

With `O=C(O)COc1ccc(Cl)cc1N1CCC(CN2CCC(Oc3ccc(Cl)c(Cl)c3)CC2)CC1` [Example 39, (4-Chloro-2-{4-[4-(3,4-dichloro-phenoxy)-piperidin-1-ylmethyl]-piperidin-1-yl}-phenoxy)-acetic acid hydrochloride], the Ki was 2 nM.

On to `O=C(O)COc1c(Cl)cccc1N1CCC(CN2CCC(Oc3ccc(Cl)c(Cl)c3)CC2)CC1` [Example 40, (2-chloro-6-{4-[4-(3,4-dichloro-phenoxy)-piperidin-1-ylmethyl]-piperidin-1-yl}-phenoxy)-acetic acid], for which the Ki was 3.16 nM.

On to `Cc1c(OC2CCN(CC3CCN(c4cccc(O[C@@H](C)C(=O)O)c4)CC3)CC2)ccc(Cl)c1Cl` [Example 44, (2S)-2-[3-(4-{[4-(3,4-dichloro-2-methylphenoxy)piperidin-1-yl]methyl}piperidin-1-yl)phenoxy]propanoic acid], for which the Ki is 20 nM.
